Counter-ions that a name gives are not always drawn.
Legend:
ERK 1/2 (p42/44) = test: Immunoblot of TPA-induced ERK 1/2 phosphorylation; assay type: cell-based; details: 17.0 μM and 8.5 μM pretreatment
Experimental: To measure endogenous level of several proteins in response to TPA induction and compound I, HEK293 cells were lysed with RIPA buffer (10 mM Tris-HCl pH 7.5, 1 mM EDTA, 0.1% sodium dodecyl sulfate, 0.1% deoxycholate, and protease inhibitor). Whole cell extracts were subjected to immunoblot analysis with the following antibodies: p65 (F-6), p50 (E-10), p52 (C-5), RelB (C-19), IκBα (C-21), PCNA (F-2) were obtained from Santa Cruz Biotechnology (Santa Cruz, Calif.). IKKα, IKKβ, IKKγ, phospho-IκBα, phospho-IKKα/β, phospho-IKKγ, pohospho-Stat3 (Tyr 705 and Ser 727), phospho-p65 (Ser536 and Ser276), phospho-p44/42, phospho-JNKs were purchased from Cell Signaling (Danvers, Mass.), and α-tubulin from Sigma (St. Louis, Mo.). Nuclear and cytoplasmic extracts were prepared with HEK293 cells by NE-PER Nuclear and Cytoplasmic Extraction Reagents (Pierce Biotechnology, Rockford, Ill.) according to the manufacturer's protocol.
The selectivity of compound I was evaluated by measuring phosphorylation of proteins involved in the AP-1 induction pathway. AP-1 dependent transcription can be activated by MAP Kinases JNK, ERK 1/2 (p44/42). […] At these concentrations compound I, in contrast, completely repressed major regulators in the NFκB activation pathway. JNKs are activated by a variety of environmental stresses responsible for AP-1 activation through c-Jun phosphorylation. […]

IKKα = IKKα (Homo sapiens, UniProt O15111); test: Off-chip incubation mobility-shift kinase assay, IKKα; assay type: biochemical; details: fully activated, phosphorylated IKKα; 1.25, 2.50, 5.00, and 10.00 μM
Experimental: (§1) In an attempt to determine whether compound I interferes with ATP binding to the catalytic site, the activity of compound I was measured with fully activated, phosphorylated IKKα or IKKβ. […] However, whether this compound interacts outside of the ATP binding pocket of IKK as an ATP non-competitive inhibitor similar to BMS-345541 is unknown. […] Luciferase activities with TPA induction alone were set at 100% and the relative activities with TPA in the presence of compounds are shown.

IKKβ = target: T1, IKKβ (Homo sapiens, UniProt O14920); test: Off-chip incubation mobility-shift kinase assay, IKKβ; assay type: biochemical
T1 construct: purchased Calbiochem
T1 sequence (O14920 1-756): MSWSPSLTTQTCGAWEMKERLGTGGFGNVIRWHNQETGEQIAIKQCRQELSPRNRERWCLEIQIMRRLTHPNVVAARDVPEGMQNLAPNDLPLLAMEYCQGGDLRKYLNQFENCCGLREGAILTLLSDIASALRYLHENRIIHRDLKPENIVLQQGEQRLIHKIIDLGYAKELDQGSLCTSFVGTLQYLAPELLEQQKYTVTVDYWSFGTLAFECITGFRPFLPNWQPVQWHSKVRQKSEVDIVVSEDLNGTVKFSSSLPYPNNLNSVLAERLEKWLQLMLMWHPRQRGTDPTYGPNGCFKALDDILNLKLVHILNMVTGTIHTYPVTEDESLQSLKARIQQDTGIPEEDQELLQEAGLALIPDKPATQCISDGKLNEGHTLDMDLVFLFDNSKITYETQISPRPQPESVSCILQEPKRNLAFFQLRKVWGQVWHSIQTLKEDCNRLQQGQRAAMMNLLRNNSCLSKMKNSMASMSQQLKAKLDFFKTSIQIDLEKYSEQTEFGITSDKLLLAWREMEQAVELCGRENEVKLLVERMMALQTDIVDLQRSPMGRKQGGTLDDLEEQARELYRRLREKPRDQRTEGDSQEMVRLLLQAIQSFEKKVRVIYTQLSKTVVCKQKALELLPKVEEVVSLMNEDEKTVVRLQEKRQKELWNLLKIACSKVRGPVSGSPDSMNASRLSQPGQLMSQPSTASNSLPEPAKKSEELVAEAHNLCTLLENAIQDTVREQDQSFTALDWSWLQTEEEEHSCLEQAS
Experimental: as §1

Chain of IKKα (O15111 whole entry, species assumed): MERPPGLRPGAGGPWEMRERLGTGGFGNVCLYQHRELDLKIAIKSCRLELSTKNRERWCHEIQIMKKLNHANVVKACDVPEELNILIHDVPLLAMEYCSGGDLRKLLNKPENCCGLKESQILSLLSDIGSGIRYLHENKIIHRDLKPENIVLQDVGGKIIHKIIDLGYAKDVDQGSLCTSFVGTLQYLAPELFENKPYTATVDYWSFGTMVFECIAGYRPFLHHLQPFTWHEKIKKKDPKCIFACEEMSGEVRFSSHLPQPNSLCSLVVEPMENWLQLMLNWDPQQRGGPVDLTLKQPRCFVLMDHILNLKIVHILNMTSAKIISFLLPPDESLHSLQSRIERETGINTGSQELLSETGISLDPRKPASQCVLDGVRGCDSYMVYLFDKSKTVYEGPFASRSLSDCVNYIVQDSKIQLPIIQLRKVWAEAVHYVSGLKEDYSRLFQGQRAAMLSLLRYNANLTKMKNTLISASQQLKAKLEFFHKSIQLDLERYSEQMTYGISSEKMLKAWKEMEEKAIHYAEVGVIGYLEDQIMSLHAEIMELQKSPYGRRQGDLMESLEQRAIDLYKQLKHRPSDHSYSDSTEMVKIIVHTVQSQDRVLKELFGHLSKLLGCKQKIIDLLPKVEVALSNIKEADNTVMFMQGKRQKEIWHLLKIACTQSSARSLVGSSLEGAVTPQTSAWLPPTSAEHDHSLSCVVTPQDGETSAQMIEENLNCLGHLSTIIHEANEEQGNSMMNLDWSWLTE

`Cc1cc(N)ccc1N=Nc1ccc(S(=O)(=O)CCOS(=O)(=O)O)cc1` [compound I, 2-(4-((4-amino-2-methylphenyl)diazenyl)phenylsulfonyl)ethyl hydrogen sulfate] was tested. Which “TPA-induced phosphorylation of endogenous ERK 1/2 (p42/44)” value (ERK 1/2 (p42/44)) did it give?
Its value is “no repression”.

What about the “Inhibition of IKKα activity, phosphorylation of a peptide substrate” value (IKKα) of the same compound?
Its value is “does not inhibit”.

What about the “Binding to the ATP binding pocket of IKKβ” value (IKKβ) of the same compound?
Its value is “no activity”.

And the “Inhibition of IKKβ activity, phosphorylation of a peptide substrate” value (IKKβ; fully activated, phosphorylated IKKβ, 1.25, 2.50, 5.00, and 10.00 μM)?
The value was “does not inhibit”.
